Laboratory results published in patent publication US6114572A, “Substituted phenols and thiophenols useful as antioxidant agents” (priority 1997, dated 2000).
Where two headings read alike, the source gives them in different places.

Tests used:
Male Sprague-Dawley Rats = experiment: Serum clinical chemistries in male Sprague-Dawley rats; assay type: in vivo
Method: Measurement of Antioxidant Activity and Bioavailability of Compounds of Formula (1) By In Vivo Screening in Male Sprague-Dawley Rats
(§1) A typical experiment consists of 4-6 groups of rats (N=5 per group) with 1 group being a control which receives no MDL compound and the other groups being treated with 0.3% MDL compound. […] Mix the MDL compound with approximately 50 grams of food using a mortar and pestle. This is added to the remainder of the food and mixed for 3 hours on a rotary mixer. In the morning of day 5, anesthetize non-fasted rats with carbon dioxide, and collect blood by cardiac puncture. Sacrifice rats by cervical dislocation. Record body weights and liver weights in grams. Record food consumption as grams·day^-1 ·rat^-1. Deaths are recorded as mortality. Use aliquots of fresh serum for clinical chemistries, thiobarbituric acid reactive substances (TBARS) and conjugated diene measurements. Freeze aliquots of serum (~0.5 mL) and whole livers at -20° C. for compound and metabolite concentration determination at a later time.
Allow blood to clot at room temperature for 30 minutes. Obtain serum after centrifugation for 10 min at 4° C. at 3000 rpm in a Beckman J-6M/E centrifuge with a JS-4.2 rotor. […] Calculate ALP, ALT, and AST as units/L. Calculate cholesterol, triglycerides, and glucose as mg/dL.

[1] = HPLC quantitation of compound and metabolite concentration in rat serum and liver; conditions: in vivo; for concentration at 96 h: po, 0.3% in diet, 4 days
From the text: (§2) A typical experiment consists of 4-6 groups of rats (N=5 per group) with 1 group being a control which receives no MDL compound and the other groups being treated with 0.3% MDL compound. Some of the compounds are either repeated at 0.3% or evaluated again at the lower dose of 0.1%. House Male Sprague-Dawley rats, 50-100 g, (Harlan Laboratories, Indianapolis, Ind.) in groups of 5, feeding ad libitum water and Purina Rodent chow (#5002) with or without MDL compound as a dietary admixture for 4 days. Make dietary admixtures (0.3%) by mixing 1.2 grams of an MDL compound with 400 grams of Purina rodent chow (#5002). Mix the MDL compound with approximately 50 grams of food using a mortar and pestle. This is added to the remainder of the food and mixed for 3 hours on a rotary mixer. In the morning of day 5, anesthetize non-fasted rats with carbon dioxide, and collect blood by cardiac puncture. Sacrifice rats by cervical dislocation. Record body weights and liver weights in grams. Record food consumption as grams·day^-1 ·rat^-1. Deaths are recorded as mortality. Use aliquots of fresh serum for clinical chemistries, thiobarbituric acid reactive substances (TBARS) and conjugated diene measurements. Freeze aliquots of serum (~0.5 mL) and whole livers at -20° C. for compound and metabolite concentration determination at a later time.
Determine serum and liver concentrations of parent compound and the metabolites, bisphenol and diphenoquinone, by reverse phase HPLC using a Waters 990 Powerline system. Homegenize livers (1 gram samples) with 5.0 mL PBS, pH 7.4, using a Polytron tissue homogenizer at setting 5 for 20-30 seconds. Extract serum or liver homogenates as follows: add 100 μL of either serum or homogenate to 2.0 mL diethyl ether:ethanol (3:1) while vortexing the tube. Cap the sample tubes and centrifuge for 10 min at 5° C. at 3500 rpm in a Beckman GPKR centrifuge with a GH 3.7 rotor. Transfer the supernatants to clean tubes and dry under N2. Reconstitute samples with 200 μL of acetonitrile:hexane:0.1 M ammonium acetate (90:6.5:3.5, by vol.). Then, inject 100 μL onto a Waters Deltapak C18-300 Å column, and elute with an 83% acetonitrile:17% water mobile phase at a flow rate of 1.5 mL/min. Record absorbances at the wavelengths of 240, 254, and 420nm. Calculate compound concentrations from known quantities of authentic parent compounds after correction for recovery. […]. Calculate concentrations as μg/mL of serum and μg/g of liver.

[2] = Animal parameters (food, body weight, liver weight, mortality) in male Sprague-Dawley rats; assay type: in vivo; conditions: for mortality at 96 h: po, read-out: mortality (deaths per group)
From the text: as §2

[3] = system: oxidation of serum lipids; experiment: TBARS assay (oxidation of serum lipids) in male Sprague-Dawley rats; assay type: in vivo; conditions: feed or water, 96 h, rat serum, 4 days, N = 5, CuSO4-initiated, 3 hr, read-out: TBARS, percent of control
Method: as §1
In this assay the oxidation of serum lipids is initiated with CuSO4, resulting in the formation of aldehydes, such as malondialdehyde (MDA). Upon incubation with thiobarbituric acid, the absorbance of the aldehydes can be detected at 530-540 nm. […] Measure TBARS as follows: mix 100 μL of serum with 400 μL of a 5 mmol CuSO4 solution and incubate at 37° C. for 3 hr. Stop the reactions by addition of 1.0 mL of 20% trichloroacetic acid. […] Centrifuge samples briefly to pellet undissolved material, and transfer the supernatants to a 96-well microtiter plate. Measure absorbances at 540 nm using a Biotek model EL311 microplate reader. The nmoles of MDA produced are calculated from a standard curve of 0 to 10 nmoles of MDA prepared from malonaldehyde bis(dimethylacetal). Serum samples from treated rats are compared to serum samples from control rats that received no MDL compound.

ICAM-1 = conditions: vascular endothelial cells; Mauri, N. et al.; cited from earlier work
VCAM-1 = conditions: vascular endothelial cells; Mauri, N. et al.; cited from earlier work
[4] = rat serum, 0.3% in diet, 4 days, N = 5
[5] = mean N = 5, read-out: Liver Parent (parent compound concentration)
[6] = mean N = 5, read-out: Serum Parent (parent compound concentration)
[7] = in vivo, rat, 0.3% in diet, 4 days, N = 5
[8] = rat, 0.3% in diet, 4 days, N = 5

SMILES | ALT (alanine aminotransferase), percent of control (Male Sprague-Dawley Rats; [4]) [%] | AST (aspartate aminotransferase), percent of control (Male Sprague-Dawley Rats; [4]) [%] | GLUC (glucose), percent of control (Male Sprague-Dawley Rats; rat, in vivo) [%] | Liver Bis (bisphenol concentration) ([1]; 5760 min) | Liver Quin (diphenoquinone concentration) ([1]; 5760 min) | Serum Bis (bisphenol concentration) ([1]; 5760 min) | Serum Quin (diphenoquinone concentration) ([1]; 5760 min) | concentration at 96 h [1, 5] [ng/g] | concentration at 96 h [1, 6] [ng/mL] | food (grams eaten per day per rat), percent of control ([2]; 0.3% in diet, 4 days, N = 5) [%] | mortality at 96 h [2, 7] [%] | body wt., percent of control [2, 8] [%] | response vs control in vivo at 0.3 % in diet [3] [%] | ALP (alkaline phosphatase), percent of control (Male Sprague-Dawley Rats; [4]) [%] | AST (aspartate aminotransferase), percent of control (Male Sprague-Dawley Rats; rat, in vivo) [%] | food (grams eaten per day per rat), percent of control ([2]; in vivo) [%] | other results
CC(C)CCCC(C)CCOc1cc(C(C)(C)C)c(O)c(C(C)(C)C)c1 (stereo not shown) [104,102] | 114 | 82 | 98 | 0 | 0 | 0 | 0 | 481000 | 32800 | 92 | 0 | 97 | 71 |  |  |  | ALP (alkaline phosphatase), percent of control (Male Sprague-Dawley Rats; rat, in vivo): 101%
CC(C)=CCC[C@H](C)CCSc1ccc(O)c(C(C)(C)C)c1 [103,714] | 120 | 104 | 95 | 0 | 0 | 0 | 0 |  | 2700 | 102 | 0 | 103 | 21 | 111 |  |  | Liver Parent (parent compound concentration) ([1]; 5760 min): 0
CC(C)=CCCC(C)CCSc1cc(C(C)(C)C)c(O)c(C(C)(C)C)c1 (stereo not shown) [103,960] | 117 |  | 110 |  | 0 | 0 | 0 | 47300 | 8700 |  | 0 | 100 | 24 | 125 | 102 | 105 | lw/bw (liver weight/body weight), percent of control [2, 8]: 130%
CC(C)=CCC[C@@H](C)CCOc1cc(C(C)(C)C)c(O)c(C(C)(C)C)c1 [104,535] | 108 |  |  | 0 | 0 | 0 | 0 | 60300 | 16300 |  | 0 |  | 11 | 151 | 94 | 95 | GLUC (glucose), percent of control (Male Sprague-Dawley Rats; [4]): 112%; body wt., percent of control ([2]; rat, in vivo): 102%
CC(=O)N[C@@H](CS)C(=O)O [N-acetylcysteine] |  |  |  |  |  |  |  |  |  |  |  |  |  |  |  |  | inhibition of cytokine-induced expression of ICAM-1 (ICAM-1): not ICAM-1; inhibition of cytokine-induced expression of VCAM-1 (VCAM-1): inhibit cytokine-induced expression of VCAM-1
